Assay results taken from article PMC4766415 (Nature Communications, 2016).

How the values were obtained:
[1] = test system: T1, tetrameric TTR in human plasma; assay: Ex vivo plasma TTR stability by immunoturbidity after urea denaturation; assay type: biochemical; details: 4.8 M urea, 48 h; pooled plasma of healthy volunteers
T1 construct: Plasma TTR was then immunoprecipitated; from tissue; host or cells: human plasma
From the text: Stabilization of plasma TTR under physiological conditions was confirmed using an immunoturbidity assay[29] (Fig. 4c). […] After urea treatment, samples were crosslinked with glutaraldehyde and the concentration of TTR determined by immunoturbidity. Treatment with urea and glutaraldehyde decreases immunoturbidity signal due to the extensive modification of denatured TTR monomers by glutaraldehyde, hampering antibody recognition. As TTR denaturation is preceded by tetramer dissociation, the signal roughly correlates with tetramer stability.
A pool of lithium-heparin plasma samples from healthy volunteers stored at −80 °C was thawed on ice. Partially clotted particles were removed by spinning the samples for 2 min at 10,000g. […] Addition volume was limited to maximum 1.5% (v/v) of sample. A control in which DMSO vehicle was added was included in the experimental design. Samples were then mixed with a urea solution (8 M in 50 mM potassium phosphate pH 7.0, 100 mM NaCl, 1 mM dithiothreitol, 1 mM EDTA) to a final urea concentration of 4.8 M, and incubated for various time points at controlled RT conditions. […] Samples were transferred to a measuring tube and read by immunoturbidity after 5 min at RT. Immunoturbidity was measured in a Siemens Automate Dimension EXL200 instrument, using the Siemens Prealbumin (PALB) reagent and calibrator according to the manufacturer's instructions. […]

human V30M-TTR = test system: T2, human V30M-TTR; assay: T4 competition in plasma of transgenic mice after oral tolcapone; assay type: in vivo; details: 30 to 300 mg kg^−1 by gavage
T2 construct: plasma samples from the transgenic mice expressing human V30M-TTR; from tissue; host or cells: plasma of transgenic mice expressing human V30M-TTR
Method: The animals were killed 1 h after the last dose. Plasma samples were obtained before dosing (t=0) and at the end of the experiment. T4 competition assays by native gel electrophoresis were performed in plasma following the same protocol as in Fig. 4a. At basal conditions (t=0), around 40% of the total radioactivity was associated with the TTR band in samples from all animals.
Plasma samples were treated with radiolabelled T4 and subjected to native PAGE. The fraction of radiolabelled T4 bound to the band corresponding to TTR is represented. Error bars indicate s.e.m. (n=4). (b) TTR tetramer stability in the plasma of control and tolcapone-treated transgenic mice was assessed by IEF under semi-denaturing conditions. The ratio between the TTR tetramers and the rest of the TTR species in the IEF gels was calculated for controls and tolcapone-treated mice. The data are expressed as fold increase of the ratio TTR tetramer/total TTR with respect to samples from vehicle-treated animals. ***P<0.001 and **P<0.01 (Student's t-test). Error bars indicate s.e.m. (n=3). […] TTR stabilization was quantified by immunoturbidity after urea denaturation with subsequent crosslinking with glutaraldehyde as detailed in the experimental section. […] White bars correspond to plasma samples crosslinked 0 h after urea addition, black bars correspond to plasma samples crosslinked after 48 h of urea denaturation. […]

TTR tetramer = test system: T3, TTR tetramer; assay: TTR stabilization after oral administration in humans (immunoturbidity, urea); assay type: in vivo, human; details: for FOI (TTR tetramer after 48 h urea/TTR tetramer at time 0): 4.8 M urea
T3 construct: Plasma TTR was then immunoprecipitated; from tissue; host or cells: human plasma
Method: TTR stabilization in vivo was measured using an immunoturbidimetric assay as in Fig. 4c. The fraction of initial tetramer concentration (FOI) was determined in triplicate for each sample (FOI=TTR tetramer after 48 h urea treatment/TTR tetramer at time 0 in the presence of urea).
For TTR stabilization analysis, frozen plasma samples were thawed on ice. Samples were then mixed with a 8 M urea solution (in 40 mM sodium phosphate pH 7.4 and 80 mM KCl) to a final urea concentration of 4.8 M. One aliquot was taken immediately after adding urea (time 0) and the rest were incubated for 48 h at controlled RT conditions. After the incubation time points (0 or 48 h), TTR was crosslinked with 40 mM glutaraldehyde (2.5 M stock solution). The samples were quickly vortexed and incubated for 4 min at RT. Then, NaBH4 was added to a final concentration of 48 mM to quench the reaction. Samples were transferred to a measuring tube and read by immunoturbidity after 5 min at RT. Immunoturbidity was measured in a Beckman Coulter AU680 ISE instrument (Beckman Coulter), using the Olympus OSR6175 reagent and calibrator ODR3029 (Olympus) according to the manufacturer's instructions. Analysis was performed in triplicates. Informed consent was obtained from all subjects and the protocol was approved by the Ethics Committee of Hospital Vall d'Hebron (Barcelona).

Cc1ccc(C(=O)c2cc(O)c(O)c([N+](=O)[O-])c2)cc1 [tolcapone]
stabilization of plasma TTR against urea denaturation [1]: stabilized TTR in a dose-responsive manner | amount of T4 remaining bound to TTR at the end of treatment (human V30M-TTR): decreased in a dose-dependent manner | FOI (TTR tetramer after 48 h urea/TTR tetramer at time 0) (TTR tetramer; HV1, 200 mg oral, plasma 2 h after dose): 0.78±0.04 | FOI (TTR tetramer after 48 h urea/TTR tetramer at time 0) (TTR tetramer; HV2, 2 × 200 mg oral, plasma 2 h after last dose): 0.98±0.02 | TTR stabilization (TTR tetramer; single dose of 200 mg, plasma 13.6 μM at Tmax): 359%
